We go through 38 compounds from patent US9896447B2, “TrkA kinase inhibitors, compositions and methods thereof” (MERCK SHARP & DOHME CORP., priority 2013, dated 2018).

Structures are written as SMILES.

One may read the IC50 as the concentration that inhibits the measured activity by half.

The target in this experiment is TrkA receptor (Homo sapiens (Human), UniProt P04629). In words: DiscoverX PathHunter TrkA functional assay (U2OS cells, NGF stimulated). Particulars: U2OS cells expressing TrkA-Prolink and Shc1-EA; compound 1 hour, then EC80 of NGF for 3 hours; luminescence. It is filed as cell-based. Here is the method: TrkA functional activity was measured using a DiscoverX PathHunter assay. In this assay, U2OS cells are express TrkA receptor as a fusion with the weakly complementing fragment of B-galactosidase, which DiscoverX calls “Prolink (PK)”; additionally, Shc1 is fused with a larger fragment, which is called “Enzyme Acceptor (EA)”. Activation of the TrkA receptor, upon NGF addition, results in the kinase domain being phosphorylated, resulting in subsequent recruitment of Shc1-EA protein. That recruitment results in an active B-galactosidase enzyme that is detected by addition of a chemiluminescent substrate.
Sequence of TrkA receptor (P04629 33-796): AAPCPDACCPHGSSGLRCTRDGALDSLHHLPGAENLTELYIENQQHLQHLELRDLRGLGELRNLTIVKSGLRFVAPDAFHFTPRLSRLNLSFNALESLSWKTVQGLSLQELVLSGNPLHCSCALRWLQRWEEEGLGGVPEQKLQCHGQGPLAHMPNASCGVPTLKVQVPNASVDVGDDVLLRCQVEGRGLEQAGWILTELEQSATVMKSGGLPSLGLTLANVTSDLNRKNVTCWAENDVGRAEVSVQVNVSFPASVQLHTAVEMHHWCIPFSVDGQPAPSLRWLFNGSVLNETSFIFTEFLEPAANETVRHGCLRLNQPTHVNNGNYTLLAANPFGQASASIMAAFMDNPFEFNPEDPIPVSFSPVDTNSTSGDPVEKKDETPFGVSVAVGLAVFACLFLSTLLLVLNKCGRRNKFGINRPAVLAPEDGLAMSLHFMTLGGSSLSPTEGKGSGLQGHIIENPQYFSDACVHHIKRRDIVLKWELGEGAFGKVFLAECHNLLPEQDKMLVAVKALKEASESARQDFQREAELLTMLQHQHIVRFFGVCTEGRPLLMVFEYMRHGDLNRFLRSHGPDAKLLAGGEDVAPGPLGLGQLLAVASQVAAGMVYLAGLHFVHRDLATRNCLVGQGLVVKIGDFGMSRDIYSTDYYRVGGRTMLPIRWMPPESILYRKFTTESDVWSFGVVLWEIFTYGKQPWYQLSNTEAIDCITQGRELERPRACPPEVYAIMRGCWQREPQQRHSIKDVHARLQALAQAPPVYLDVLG
All reagents were purchased from DiscoverX, except for the receptor agonists (NGF, BDNF, NT3) which were purchased from Peprotech. Cells were expanded and frozen into cryovials (TrkA p75 @ passage 13, 1.5×10^7 cells/vial; TrkC p75 @ passage 11, 1.5×10^7 cells/vial in InVitrogen Recovery Cell Freezing media), and stored in the vapor phase of liquid nitrogen, and thawed immediately before use. Thawed cells were added to a 384-well plate (BD Falcon 384-well white/clear, TC surface 120 uL assay plates (353963), 20 uL of 0.375e6 cells/mL=>7500 cells/well), and allowed to incubate overnight. Compound (10 mM starting dose: 202.5 nL compound yielding 0.81% DMSO final in total assay volume and starting doses 81 uM) was added the following morning and allowed to incubate on cells for 1 hour. Then, 5 uL EC80 of agonist (NGF for TrkA; BDNF for TrkB; NT3 for TrkC) was added and allowed to incubate for 3 hours at room temperature. DiscoverX PathHunter detection reagent is added (12 uL to plate and components diluted in parts as per kit instructions) and the plate is further incubated for 1 hour in the dark. The plate is read via luminescence on the Perkin Elmer Envision.
`Cc1cc(NC(=O)Nc2c(-c3ccccc3)nc3ccccn23)n(-c2ccccc2)n1` [Compound 25, 1-(3-methyl-1-phenyl-1H-pyrazol-5-yl)-3-(2-phenylimidazo[1,2-a]pyridin-3-yl)urea]: half-maximal inhibition (IC50) required 520 nM.
On to `Cc1cc(NC(=O)Nc2cccc3ccccc23)n(-c2ccccc2)n1` [Compound 4, 1-(3-methyl-1-phenyl-1H-pyrazol-5-yl)-3-naphthalen-1-ylurea], for which the IC50 came out at 590 nM.
`Cn1ncc(NC(=O)NCc2ccccc2OC(F)(F)F)c1-c1ccccc1` [Compound 46, 1-(1-methyl-5-phenyl-1H-pyrazol-4-yl)-3-[2-(trifluoromethoxy)benzyl]urea] came in with an IC50 of 1600 nM.
For the compound `Cc1nc(-c2ccccc2)c(NC(=O)Nc2c(-c3ccccc3)nc3ccccn23)s1` [Compound 26, 1-(2-methyl-4-phenyl-1,3-thiazol-5-yl)-3-(2-phenylimidazo[1,2-a]pyridin-3-yl)urea], the IC50 turned out to be 48 nM.
With `Cc1ncc(NC(=O)NCc2cc(F)ccc2C(F)(F)F)c(-c2ccccc2)n1` [Compound 43, 1-[5-fluoro-2-(trifluoromethyl)benzyl]-3-(2-methyl-4-phenylpyrimidin-5-yl)urea] the figure was 1400 nM; with `CCOC(=O)c1nc2ccccn2c1NC(=O)Nc1c(-c2ccccc2)nc2ccccn12` [Compound 28, ethyl 3-{[(2-phenylimidazo[1,2-a]pyridin-3-yl)carbamoyl]amino} imidazo[1,2-a]pyridine-2-carboxylate], 460 nM; with `O=C(Nc1c(-c2ccccc2)nc2ccccn12)Nc1c(-c2ccccc2)nc2ncccn12` [Compound 30, 1-(2-phenylimidazo[1,2-a]pyridin-3-yl)-3-(2-phenylimidazo[1,2-a]pyrimidin-3-yl)urea], 1500 nM.
`O=C(Nc1cccc2ccccc12)Nc1c(-c2ccccc2)nc2sccn12` [Compound 16, 1-naphthalen-1-yl-3-(6-phenylimidazo[2,1-b][1,3]thiazol-5-yl)urea] yielded an IC50 of 290 nM.
Turning to `Cc1cc(NC(=O)Nc2ccccc2-c2ccccc2)n(-c2ccccc2)n1` [Compound 6, 1-biphenyl-2-yl-3-(3-methyl-1-phenyl-1H-pyrazol-5-yl)urea], inhibition was half-maximal at 420 nM (IC50).
With `O=C(Nc1ccccn1)Nc1cc(-c2ccncc2)nn1-c1ccccc1` [Compound 9, 1-(1-phenyl-3-pyridin-4-yl-1H-pyrazol-5-yl)-3-pyridin-2-ylurea] the figure was 350 nM.
As to `Cc1nc(-c2ccccc2)c(NC(=O)Nc2cccnc2-c2ccccc2)s1` [Compound 37, 1-(2-methyl-4-phenyl-1,3-thiazol-5-yl)-3-(2-phenylpyridin-3-yl)urea], the midpoint of inhibition, the IC50, lay at 1800 nM.
Compound `O=C(NCc1ccc(F)cc1C(F)(F)F)Nc1ccnn1-c1ccccc1` [Compound 39, 1-[4-fluoro-2-(trifluoromethyl)benzyl]-3-(1-phenyl-1H-pyrazol-5-yl)urea] gave an IC50 of 1400 nM.
`Cc1ncc(NC(=O)N[C@@H](C)C2CCCCC2)c(-c2ccccc2)n1` [Compound 41, 1-[(1S)-1-cyclohexylethyl]-3-(2-methyl-4-phenylpyrimidin-5-yl)urea] had a half-inhibitory concentration (IC50) of 2100 nM.
As for `Cc1ncc(NC(=O)Nc2cnc(C)nc2-c2ccccc2)c(-c2ccccc2)n1` [Compound 17, 1,3-bis(2-methyl-4-phenylpyrimidin-5-yl)urea], 1400 nM corresponded to half-maximal inhibition (IC50).
With `Cc1onc(-c2ccccc2)c1NC(=O)NCc1ccccc1SC(F)(F)F` [Compound 45, 1-(5-methyl-3-phenylisoxazol-4-yl)-3-{2-[(trifluoromethyl)sulfanyl]benzyl}urea] the figure was 420 nM; with `Cc1cc(NC(=O)Nc2cccc(Br)n2)n(-c2ccccc2)n1` [Compound 5, 1-(6-bromopyridin-2-yl)-3-(3-methyl-1-phenyl-1H-pyrazol-5-yl)urea], 4800 nM.
In turn, `Cc1ncc(NC(=O)NCc2ccccc2SC(F)(F)F)c(-c2ccccc2)n1` [Compound 40, 1-(2-methyl-4-phenylpyrimidin-5-yl)-3-{2-[(trifluoromethyl)sulfanyl]benzyl}urea] returned an IC50 of 680 nM.
Regarding `Cc1ccc(NC(=O)Nc2ccccn2)c(-c2ccccc2)n1` [Compound 12, 1-(6-methyl-2-phenylpyridin-3-yl)-3-pyridin-2-ylurea], inhibition was half-maximal at 1100 nM (IC50).
With `Cc1nc(-c2ccccc2)c(NC(=O)Nc2c(-c3ccccc3)nc(C)n2C)s1` [Compound 34, 1-(1,2-dimethyl-4-phenyl-1H-imidazol-5-yl)-3-(2-methyl-4-phenyl-1,3-thiazol-5-yl)urea] the figure was 4100 nM; with `Cc1ncc(NC(=O)Nc2cccc3ccccc23)c(-c2ccccc2)n1` [Compound 15, 1-(2-methyl-4-phenylpyrimidin-5-yl)-3-naphthalen-1-ylurea], 4100 nM.
`O=C(Nc1c(-c2ccccc2)nc2ccccn12)Nc1c(-c2ccccc2)nc2ccccn12` [Compound 1, 1,3-bis(2-phenylimidazo[1,2-a]pyridin-3-yl)urea] had an IC50 of 82 nM.
Compound `O=C(Nc1c(-c2ccccc2)nc2ccccn12)Nc1c(-c2ccccc2)nc2ccc(Cl)nn12` [Compound 31, 1-(6-chloro-2-phenylimidazo[1,2-b]pyridazin-3-yl)-3-(2-phenylimidazo[1,2-a]pyridin-3-yl)urea] gave an IC50 of 1000 nM.
In turn, `Cc1ncc(NC(=O)Nc2c(-c3ccccc3)nc3ccccn23)c(-c2ccccc2)n1` [Compound 21, 1-(2-methyl-4-phenylpyrimidin-5-yl)-3-(2-phenylimidazo[1,2-a]pyridin-3-yl)urea] yielded an IC50 of 150 nM.
Consider `Cc1cc(NC(=O)Nc2cccc(C)c2C)n(-c2ccccc2)n1` [Compound 7, 1-(2,3-dimethylphenyl)-3-(3-methyl-1-phenyl-1H-pyrazol-5-yl)urea], for which the midpoint of inhibition, the IC50, lay at 4800 nM.
Compound `Cc1ncc(NC(=O)Nc2sc(C)nc2-c2ccccc2)c(-c2ccccc2)n1` [Compound 36, 1-(2-methyl-4-phenylpyrimidin-5-yl)-3-(2-methyl-4-phenyl-1,3-thiazol-5-yl)urea] yielded an IC50 of 2300 nM.
On to `Cn1ccnc1-c1cccc(NC(=O)Nc2c(-c3ccccc3)nc3ccccn23)c1` [Compound 27, 1-[3-(1-methyl-1H-imidazol-2-yl)phenyl]-3-(2-phenylimidazo[1,2-a]pyridin-3-yl)urea], for which the IC50 stood at 1600 nM.
`CSc1ncc(NC(=O)Nc2cnc(SC)nc2-c2ccccc2)c(-c2ccccc2)n1` [Compound 18, 1,3-bis[2-(methylsulfanyl)-4-phenylpyrimidin-5-yl]urea] showed an IC50 of 280 nM.
In turn, `O=C(Nc1ccc(C(F)(F)F)cc1Cl)Nc1c(-c2ccccc2)nc2ccccn12` [Compound 22, 1-[2-chloro-4-(trifluoromethyl)phenyl]-3-(2-phenylimidazo[1,2-a]pyridin-3-yl)urea] returned a half-maximal inhibitory concentration (IC50) of 4200 nM.
With `Cc1nc(-c2ccccc2)c(NC(=O)Nc2c(-c3ccccc3)ncn2C)s1` [Compound 33, 1-(1-methyl-4-phenyl-1H-imidazol-5-yl)-3-(2-methyl-4-phenyl-1,3-thiazol-5-yl)urea] the figure was 4000 nM; with `Cc1ncc(NC(=O)Nc2ccccc2-c2ccccc2)c(-c2ccccc2)n1` [Compound 13, 1-biphenyl-2-yl-3-(2-methyl-4-phenylpyrimidin-5-yl)urea], 2300 nM.
For the compound `O=C(NCc1cc(F)ccc1C(F)(F)F)Nc1ccnn1-c1ccccc1` [Compound 38, 1-[5-fluoro-2-(trifluoromethyl)benzyl]-3-(1-phenyl-1H-pyrazol-5-yl)urea], the IC50 was 1100 nM.
With `CNC(=O)c1nc2ccccn2c1NC(=O)Nc1c(-c2ccccc2)nc2ccccn12` [Compound 32, N-methyl-3-{[(2-phenylimidazo[1,2-a]pyridin-3-yl)carbamoyl]amino}imidazo[1,2-a]pyridine-2-carboxamide] the figure was 1000 nM.
In the case of `Cc1ncc(NC(=O)Nc2ccccn2)c(-c2ccccc2)n1` [Compound 20, 1-(2-methyl-4-phenylpyrimidin-5-yl)-3-pyridin-2-ylurea], half-maximal inhibition (IC50) was put at 4000 nM.
Regarding `Cc1cc(NC(=O)Nc2cc(C)nn2-c2ccccc2)n(-c2ccccc2)n1` [Compound 3, 1,3-bis(3-methyl-1-phenyl-1H-pyrazol-5-yl)urea], the IC50 turned out to be 2700 nM.
The figure for `O=C(Nc1ccccn1)Nc1cc(-c2ccccc2)nn1-c1ccccc1` [Compound 2, 1-(1,3-diphenyl-1H-pyrazol-5-yl)-3-pyridin-2-ylurea] is 160 nM; for `O=C(NCc1ccccc1SC(F)(F)F)Nc1ccnn1-c1ccccc1` [Compound 44, 1-(1-phenyl-1H-pyrazol-5-yl)-3-{2-[(trifluoromethyl)sulfanyl]benzyl}urea] it is 420 nM; for `Cn1ncc(NC(=O)NCc2ccccc2C(F)(F)F)c1-c1ccccc1` [Compound 42, 1-(1-methyl-5-phenyl-1H-pyrazol-4-yl)-3-[2-(trifluoromethyl)benzyl]urea] it is 1400 nM.
The figure for `O=C(Nc1ccc(C(F)(F)F)cc1)Nc1c(-c2ccccc2)nc2ccccn12` [Compound 23, 1-(2-phenylimidazo[1,2-a]pyridin-3-yl)-3-[4-(trifluoromethyl)phenyl]urea] is 4300 nM.
